Experimental data: US20240360126A1, “PYRAZOLO[3,4-B]PYRIDINE COMPOUNDS FOR THE TREATMENT OF AUTOIMMUNE DISEASE” (Hoffmann-La Roche Inc., priority 2021, published 2024)

Molecular target: T1, TLR9 (Homo sapiens, UniProt Q9NR96)
T1 sequence (Q9NR96 26-1032): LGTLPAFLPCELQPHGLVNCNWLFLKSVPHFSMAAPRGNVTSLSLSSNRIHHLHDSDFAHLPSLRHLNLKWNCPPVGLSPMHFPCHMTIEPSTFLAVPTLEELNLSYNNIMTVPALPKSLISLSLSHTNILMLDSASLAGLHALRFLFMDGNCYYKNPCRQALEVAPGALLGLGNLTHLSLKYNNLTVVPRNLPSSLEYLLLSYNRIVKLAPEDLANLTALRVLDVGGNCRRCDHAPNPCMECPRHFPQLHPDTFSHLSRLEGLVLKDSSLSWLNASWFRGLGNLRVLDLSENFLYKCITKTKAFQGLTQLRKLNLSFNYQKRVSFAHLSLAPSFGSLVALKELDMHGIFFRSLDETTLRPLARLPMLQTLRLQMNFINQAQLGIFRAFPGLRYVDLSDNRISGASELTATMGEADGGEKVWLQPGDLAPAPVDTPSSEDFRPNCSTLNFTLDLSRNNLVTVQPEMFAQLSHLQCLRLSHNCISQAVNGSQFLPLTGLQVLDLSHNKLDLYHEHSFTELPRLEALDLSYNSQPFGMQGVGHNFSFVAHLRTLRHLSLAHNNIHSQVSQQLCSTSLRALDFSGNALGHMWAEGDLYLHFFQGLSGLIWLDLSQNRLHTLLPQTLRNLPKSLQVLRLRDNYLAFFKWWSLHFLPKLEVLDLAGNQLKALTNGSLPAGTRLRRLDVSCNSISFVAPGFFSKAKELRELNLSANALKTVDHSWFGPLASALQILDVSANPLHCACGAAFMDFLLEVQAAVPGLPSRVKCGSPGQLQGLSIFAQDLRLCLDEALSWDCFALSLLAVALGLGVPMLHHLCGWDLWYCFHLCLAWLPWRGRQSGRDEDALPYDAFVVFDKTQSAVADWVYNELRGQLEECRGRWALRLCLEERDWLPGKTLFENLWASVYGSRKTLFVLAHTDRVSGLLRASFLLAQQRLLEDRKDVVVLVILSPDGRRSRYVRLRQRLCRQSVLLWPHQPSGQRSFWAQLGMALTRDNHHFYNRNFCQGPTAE
Assay: HEK293-Blue-hTLR-9 cells assay
Format: cell-based
Design: host or cells: HEK293 (HEK-Blue hTLR9)
Conditions: HEK293-Blue-hTLR9 cells, ODN2006 stimulation, 20 hrs; read-out: HEK/hTLR9 IC50
Source text: A stable HEK293-Blue-hTLR-9 cell line was purchased from InvivoGen (Cat. #: hkb-htlr9, San Diego, California, USA). These cells were originally designed for studying the stimulation of human TLR9 by monitoring the activation of NF-κB. A SEAP (secreted embryonic alkaline phosphatase) reporter gene was placed under the control of the IFN-β minimal promoter fused to five NF-κB and AP-1-binding sites. The SEAP was induced by activating NF-κB and AP-1 via stimulating HEK-Blue hTLR9 cells with TLR9 ligands. Therefore the reporter expression was declined by TLR9 antagonist under the stimulation of a ligand, such as ODN2006 (Cat. #: tlrl-2006-1, Invivogen, San Diego, California, USA), for incubation of 20 hrs. The cell culture supernatant SEAP reporter activity was determined using QiANTI-Blue™ kit (Cat. #: rep-qbl, Invivogen, San Diego, California, USA) at a wavelength of 640 nm, a detection medium that turns purple or blue in the presence of alkaline phosphatase.
HEK293-Blue-hTLR9 cells were incubated at a density of 250,000-450,000 cells/mL in a volume of 170 μL in a 96-well plate in Dulbecco's Modified Eagle's medium (DMEM) containing 4.5 g/L glucose, 50 U/mL penicillin, […], […], 10% (v/v) heat-inactivated fetal bovine serum with addition of 20 μL test compound in a serial dilution in the presence of final DMSO at 1% and 10 μL of 20 μM ODN2006 in above DMEM, perform incubation under 37° C. in a C02 incubator for 20 hrs. Then 20 μL of the supernatant from each well was incubated with 180 μl. Quanti-blue substrate solution at 37° C. for 2 h and the absorbance was read at 620˜655 nm using a spectrophotometer. The signaling pathway that TLR9 activation leads to downstream NF-κB activation has been widely accepted, and therefore similar reporter assay was modified for evaluating TLR9 antagonist.

**Q.** With `CO[C@@H]1CN(c2ccc([C@H]3CCN(c4cc(C)nc5c4cnn5C)C[C@@H]3C)nc2)C[C@H]1N` [Example 36, (3R,4R)-1-[6-[(3R,4S)-1-(1,6-dimethylpyrazolo[3,4-b]pyridin-4-yl)-3-methyl-4-piperidyl]-3-pyridyl]-4-methoxy-pyrrolidin-3-amine] as the molecule, how does the IC50 read?
**A.** 170 nM

**Q.** With `Cc1cc(N2CCC(c3cnc(N4CCNCC4)nc3C)CC2)c2cnn(C)c2n1` [Example 11, 1,6-dimethyl-4-[4-(4-methyl-2-piperazin-1-yl-pyrimidin-5-yl)-1-piperidyl]pyrazolo[3,4-b]pyridine] as the molecule, how does the IC50 read?
**A.** 104 nM

**Q.** With `Cc1cc(N2CCC(c3ncc(N4CCNCC4)cc3C)[C@H](C)C2)c2cnn(C)c2n1` (single isomer, unassigned) [Example 25, 1,6-dimethyl-4-[trans-3-methyl-4-(3-methyl-5-piperazin-1-yl-2-pyridyl)-1-piperidyl]pyrazolo[3,4-b]pyridine] as the molecule, how does the IC50 read?
**A.** 98 nM

**Q.** With `Cc1cc(N2CCC(c3cnc(N4CCNCC4)cc3C)[C@H](C)C2)c2cnn(C)c2n1` (single isomer, unassigned) [Example 20, 1,6-dimethyl-4-[cis-3-methyl-4-(4-methyl-6-piperazin-1-yl-3-pyridyl)-1-piperidyl]pyrazolo[3,4-b]pyridine] as the molecule, how does the IC50 read?
**A.** 220 nM

**Q.** For `Cc1cc(N2CCC(c3ncc(N4CCNCC4)nc3C)[C@H](C)C2)c2cnn(C)c2n1` (single isomer, unassigned) [Example 23, 1,6-dimethyl-4-[trans-3-methyl-4-(3-methyl-5-piperazin-1-yl-pyrazin-2-yl)-1-piperidyl]pyrazolo[3,4-b]pyridine], which IC50 is on record?
**A.** 368 nM

**Q.** Which IC50 does the source give for `Cc1cc(N2CC[C@H](c3ccc(N4CCOC[C@@H](N)C4)cn3)[C@@H](C)C2)c2cnn(C)c2n1` [Example 40, (6S)-4-[6-[(3R,4S)-1-(1,6-dimethylpyrazolo[3,4-b]pyridin-4-yl)-3-methyl-4-piperidyl]-3-pyridyl]-1,4-oxazepan-6-amine] here?
**A.** 173 nM

**Q.** `CO[C@H]1CN(c2ccc([C@H]3CCN(c4cc(C)nc5c4cnn5C)C[C@@H]3C)nc2)CC[C@@H]1N` [Example 39, (3S,4S)-1-[6-[(3R,4S)-1-(1,6-dimethylpyrazolo[3,4-b]pyridin-4-yl)-3-methyl-4-piperidyl]-3-pyridyl]-3-methoxy-piperidin-4-amine] was tested. Which IC50 did it give?
**A.** 211 nM

**Q.** `Cc1cc(N2CCC(c3ccc(N4CCNCC4)cc3)CC2)c2cnn(C)c2n1` [Example 1, 1,6-dimethyl-4-[4-(4-piperazin-1-ylphenyl)-1-piperidyl]pyrazolo[3,4-b]pyridine] was tested. Which IC50 did it give?
**A.** 275 nM

**Q.** How did the IC50 turn out when `COC[C@H]1CN(c2ccc([C@H]3CCN(c4cc(C)nc5c4cnn5C)C[C@@H]3C)nc2)CCN1` [Example 37, 4-[(3R,4S)-4-[5-[(3R)-3-(methoxymethyl)piperazin-1-yl]-2-pyridyl]-3-methyl-1-piperidyl]-1,6-dimethyl-pyrazolo[3,4-b]pyridine] was run?
**A.** 332 nM

**Q.** `Cc1cc(N2CC[C@H](c3ccc(N4CCNCC4)cn3)[C@@H](C)C2)c2cnn(C)c2n1` [Example 35, 1,6-dimethyl-4-[(3R,4S)-3-methyl-4-(5-piperazin-1-yl-2-pyridyl)-1-piperidyl]pyrazolo[3,4-b]pyridine] was tested. Which IC50 did it give?
**A.** 158 nM

**Q.** For `Cc1cc(N2CC[C@H](c3ccc(N4CC5(CNCCO5)C4)cn3)[C@@H](C)C2)c2cnn(C)c2n1` [Example 38, 2-[6-[(3R,4S)-1-(1,6-dimethylpyrazolo[3,4-b]pyridin-4-yl)-3-methyl-4-piperidyl]-3-pyridyl]-5-oxa-2,8-diazaspiro[3.5]nonane], which IC50 is on record?
**A.** 192 nM

**Q.** Which IC50 does the source give for `Cc1cc(N2CC[C@@H](c3ncc(N4CCOC[C@@H](N)C4)cc3C)[C@H](C)C2)c2cnn(C)c2n1` [Example 28, (6S)-4-[6-[(3S,4R)-1-(1,6-dimethylpyrazolo[3,4-b]pyridin-4-yl)-3-methyl-4-piperidyl]-5-methyl-3-pyridyl]-1,4-oxazepan-6-amine] here?
**A.** 126 nM

**Q.** For `Cc1cc(N2CCC(c3ccc(N4CCNCC4)cn3)CC2)c2cnn(C)c2n1` [Example 2, 1,6-dimethyl-4-[4-(5-piperazin-1-yl-2-pyridyl)-1-piperidyl]pyrazolo[3,4-b]pyridine], which IC50 is on record?
**A.** 142 nM

**Q.** `Cc1cc(N2CC[C@H](c3ccc(N4CC(C)(N)C4)cn3)[C@@H](C)C2)c2cnn(C)c2n1` [Example 43, 1-[6-[(3R,4S)-1-(1,6-dimethylpyrazolo[3,4-b]pyridin-4-yl)-3-methyl-4-piperidyl]-3-pyridyl]-3-methyl-azetidin-3-amine] was tested. Which IC50 did it give?
**A.** 203 nM

**Q.** `Cc1cc(N2CCC(c3ncc(N4CCNCC4)nc3C)[C@H](C)C2)c2cnn(C)c2n1` (single isomer, unassigned) [Example 22, 1,6-dimethyl-4-[cis-3-methyl-4-(3-methyl-5-piperazin-1-yl-pyrazin-2-yl)-1-piperidyl]pyrazolo[3,4-b]pyridine] was tested. Which IC50 did it give?
**A.** 315 nM

**Q.** How did the IC50 turn out when `CO[C@@H]1CN(c2cnc([C@@H]3CCN(c4cc(C)nc5c4cnn5C)C[C@H]3C)c(C)c2)C[C@H]1N` [Example 26, (3R,4R)-1-[6-[(3S,4R)-1-(1,6-dimethylpyrazolo[3,4-b]pyridin-4-yl)-3-methyl-4-piperidyl]-5-methyl-3-pyridyl]-4-methoxy-pyrrolidin-3-amine] was run?
**A.** 109 nM

**Q.** For `Cc1cc(N2CCNCC2)cnc1C1CCN(c2ccnc3c2cnn3C)CC1` [Example 5, 1-methyl-4-[4-(3-methyl-5-piperazin-1-yl-2-pyridyl)-1-piperidyl]pyrazolo[3,4-b]pyridine], which IC50 is on record?
**A.** 364 nM

**Q.** `Cc1cc(N2CCC(c3ncc(N4CCNCC4)cn3)CC2)c2cnn(C)c2n1` [Example 4, 1,6-dimethyl-4-[4-(5-piperazin-1-ylpyrimidin-2-yl)-1-piperidyl]pyrazolo[3,4-b]pyridine] was tested. Which IC50 did it give?
**A.** 379 nM

**Q.** With `Cc1cc(N2CCNCC2)ncc1C1CCN(c2ccnc3c2cnn3C)CC1` [Example 6, 1-methyl-4-[4-(4-methyl-6-piperazin-1-yl-3-pyridyl)-1-piperidyl]pyrazolo[3,4-b]pyridine] as the molecule, how does the IC50 read?
**A.** 208 nM

**Q.** For `CO[C@H]1CN(c2cnc(C3CCN(c4cc(C)nc5c4cnn5C)CC3)c(C)c2)CC[C@@H]1N` [Example 17, (3S,4S)-1-[6-[1-(1,6-dimethylpyrazolo[3,4-b]pyridin-4-yl)-4-piperidyl]-5-methyl-3-pyridyl]-3-methoxy-piperidin-4-amine], which IC50 is on record?
**A.** 73 nM

**Q.** For `Cc1cc(N2CCC(c3cnc(N4CCNCC4)cn3)CC2)c2cnn(C)c2n1` [Example 3, 1,6-dimethyl-4-[4-(5-piperazin-1-ylpyrazin-2-yl)-1-piperidyl]pyrazolo[3,4-b]pyridine], which IC50 is on record?
**A.** 124 nM

**Q.** `Cc1cc(N2CCC(c3ncc(N4CCNCC4)cc3C)[C@H](C)C2)c2cnn(C)c2n1` (single isomer, unassigned) [Example 24, 1,6-dimethyl-4-[cis-3-methyl-4-(3-methyl-5-piperazin-1-yl-2-pyridyl)-1-piperidyl]pyrazolo[3,4-b]pyridine] was tested. Which IC50 did it give?
**A.** 76 nM

**Q.** How did the IC50 turn out when `Cc1cc(N2CCC(c3cc(C)c(N4CCNCC4)cn3)CC2)c2cnn(C)c2n1` [Example 9, 1,6-dimethyl-4-[4-(4-methyl-5-piperazin-1-yl-2-pyridyl)-1-piperidyl]pyrazolo[3,4-b]pyridine] was run?
**A.** 120 nM

**Q.** Which IC50 does the source give for `Cc1cc(N2CC[C@@H](c3ncc(N4CC[C@@H](N)[C@H](F)C4)cc3C)[C@H](C)C2)c2cnn(C)c2n1` [Example 31, (3R,4R)-1-[6-[(3S,4R)-1-(1,6-dimethylpyrazolo[3,4-b]pyridin-4-yl)-3-methyl-4-piperidyl]-5-methyl-3-pyridyl]-3-fluoro-piperidin-4-amine] here?
**A.** 219 nM
